Assay results: patent EP4603105A1, “PHARMACEUTICAL COMPOSITION CONTAINING CYCLIC COMPOUND HAVING SELECTIVE KRAS INHIBITORY EFFECT AGAINST HRAS AND NRAS” (CHUGAI SEIYAKU KABUSHIKI KAISHA, priority 2022, dated 2024)
Like-named read-outs stand apart in the source and are kept apart here.

How the values were obtained:
HRAS wild-type protein = HRAS wild-type protein (Homo sapiens, UniProt P01112); experiment: Binding to HRAS by surface plasmon resonance (SPR), KD and KD ratio to KRAS
Outline: (§1)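 Measured at 30°C: SPR with GDP-loaded, E. coli-expressed biotin-Avi RAS captured (~100–300 RU), ascending 75 s compound injections, HBS pH 7.4 with GDP, MgCl2, 4% DMSO. KD from 1:1 fit.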

[1] = molecular target: GDP-bound KRAS wild-type protein (Homo sapiens, UniProt P01116); experiment: Binding to KRAS by surface plasmon resonance (SPR), dissociation constant KD
Outline: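 Running buffer contained 10 µM GDP and 10 mM MgCl2 to keep RAS in the GDP state, with 4% DMSO at pH 7.4. Compounds were flowed at 100 µL/min in 75 s steps of rising concentration over captured biotin-Avi RAS at 30°C. Sensorgrams were fitted 1:1 for KD.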

[2] = system: human lung cancer strain NCI-H441; experiment: NCI-H441 cell proliferation inhibitory activity (CellTiter-Glo, 4 days); format: cell-based; conditions: read-out: NCl-H441 IC50
Outline: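 Signal came from […] measured per well once the reagent was added. Beforehand, cells were cultured at 37°C and 5% carbon dioxide on a compound series serially diluted in dimethyl sulfoxide.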

[3] = molecular target: GDP-bound NRAS wild-type protein (Homo sapiens, UniProt P01111); experiment: Binding to NRAS by surface plasmon resonance (SPR), KD and KD ratio to KRAS
Outline: as §1

[4] = ratio of KD for HRAS wild-type protein to KD for KRAS
[5] = ratio of KD for GDP-bound NRAS wild-type protein to KD for KRAS
[6] = ratio of KD with respect to HRAS wild-type protein to KD with respect to KRAS
[7] = Single Cycle Kinetics, 1:1 binding model
[8] = 50% proliferation inhibitory concentration, four days
[9] = ratio of KD with respect to GDP-bound NRAS wild-type protein to KD with respect to KRAS

Sequence of GDP-bound KRAS wild-type protein (P01116 1-188 isoform P01116-2): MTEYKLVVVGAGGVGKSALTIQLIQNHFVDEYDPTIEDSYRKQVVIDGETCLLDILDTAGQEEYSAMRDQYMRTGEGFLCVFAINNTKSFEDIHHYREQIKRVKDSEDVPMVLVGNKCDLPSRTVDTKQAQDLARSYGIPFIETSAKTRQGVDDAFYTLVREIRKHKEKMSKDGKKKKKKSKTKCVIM
Sequence of GDP-bound NRAS wild-type protein (P01111 whole entry): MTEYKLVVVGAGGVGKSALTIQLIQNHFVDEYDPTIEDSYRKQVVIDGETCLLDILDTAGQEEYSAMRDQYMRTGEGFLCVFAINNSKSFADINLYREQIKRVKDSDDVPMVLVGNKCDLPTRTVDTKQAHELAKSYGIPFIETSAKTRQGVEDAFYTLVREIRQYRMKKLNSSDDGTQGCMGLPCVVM
Sequence of HRAS wild-type protein (P01112 whole entry): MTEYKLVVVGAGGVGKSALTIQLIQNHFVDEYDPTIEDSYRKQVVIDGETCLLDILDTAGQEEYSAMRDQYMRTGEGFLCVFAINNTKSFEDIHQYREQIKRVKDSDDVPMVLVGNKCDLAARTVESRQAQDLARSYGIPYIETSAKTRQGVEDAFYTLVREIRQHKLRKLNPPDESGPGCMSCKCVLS

| SMILES | Kd ([1]; Single Cycle Kinetics) | IC50 ([2]; NCI-H441 cells, 4 days) | Kd ([1]; 1:1 binding model) | Kd [1, 7] | IC50 [2, 8] | HRAS /KRAS (HRAS wild-type protein; [4]) | NRAS /KRAS [3, 5] | HRAS /KRAS (HRAS wild-type protein; [6]) | NRAS /KRAS [3, 9] |
| --- | --- | --- | --- | --- | --- | --- | --- | --- | --- |
| C=C(C)C[C@H]1C(=O)N(C)[C@H](C(=O)N(C)C)CC(=O)N(C)[C@@H](CCC)C(=O)N[C@@H]([C@@H](C)CC)C(=O)N2CCC[C@H]2C(=O)N(C)[C@H]2C/C=C\CCN(C2=O)[C@@H](Cc2ccc(C(F)(F)F)cc2)C(=O)N(C)CC(=O)N[C@@H](CCc2ccc(C(F)(F)F)c(OC)c2)C(=O)N2C[C@H](OCC)C[C@H]2C(=O)N(C)C2(CCC2)C(=O)N1C [PP3335] | 2.5 nM | 90.6 nM |  |  |  | A (a compound having 10 or more and less than 20 is denoted as A) | A (a compound having 10 or more and less than 20 is denoted as A) |  |  |
| C=CC[C@H]1C(=O)N(C)[C@H](C(=O)N(C)C)CC(=O)N(C)[C@@H](CC(C)C)C(=O)N[C@@H]([C@@H](C)CC)C(=O)N(C)CC(=O)N(C)[C@H]2C/C=C\CCN(C2=O)[C@@H](Cc2ccc(C)cc2)C(=O)N(C)CC(=O)N[C@@H](CCc2cc(F)c(C(F)(F)F)c(F)c2)C(=O)N2C[C@H](OCC)C[C@H]2C(=O)N(C)C2(CCC2)C(=O)N1C [PP3348] | 1.4 nM | 25.4 nM |  |  |  | A (a compound having 10 or more and less than 20 is denoted as A) | A (a compound having 10 or more and less than 20 is denoted as A) |  |  |
| CCC[C@H]1C(=O)N[C@@H]([C@@H](C)CC)C(=O)N(C2CC2)CC(=O)N(C)[C@H]2C/C=C\CCN(C2=O)[C@@H](Cc2ccc(C(F)F)cc2)C(=O)N(C)CC(=O)N[C@@H](CCc2cc(F)c(C(F)(F)F)c(F)c2)C(=O)N2C[C@H](OC(C)C)C[C@H]2C(=O)NC2(CC(C)(C)C2)C(=O)N(C)[C@@H](C(CC)CC)C(=O)N(C)[C@H](C(=O)N(C)C)CC(=O)N1C [PP2529] |  | 64 nM | 0.77 nM |  |  | A (a compound having 10 or more and less than 20 is denoted as A) | AA (a compound having 20 or more is denoted as AA) |  |  |
| CC[C@H](C)[C@@H]1NC(=O)[C@H](CC)N(C)C(=O)C[C@@H](C(=O)N(C)C)N(C)C(=O)[C@H](C2CCCC2)N(C)C(=O)C2(CCC2)NC(=O)[C@H](C)N(C)C(=O)[C@H](CCc2cc(F)c(C(F)(F)F)c(F)c2)NC(=O)CN(C)C(=O)[C@H](Cc2ccc(C(F)(F)F)cc2)N2CC/C=C\C[C@@H](C2=O)N(C)C(=O)CN(C)C1=O [PP1146] |  |  |  | 0.32 nM | 202 nM |  |  | B (a compound having 3 or more and less than 10 is denoted as B) | A (a compound having 10 or more and less than 20 is denoted as A) |
| CCC[C@H]1C(=O)N[C@@H](CC(C)C)C(=O)N2C[C@@H](OC)C[C@H]2C(=O)N(C)[C@H]2C/C=C\CCN(C2=O)[C@@H](Cc2ccc(C)cc2)C(=O)N(C)CC(=O)N[C@@H](CCc2ccc(C(F)(F)F)c(OC)c2)C(=O)N2C[C@H](OCC)C[C@H]2C(=O)NC2(CCC2)C(=O)N(C)[C@@H](C2CCCC2)C(=O)N(C)[C@H](C(=O)N(C)C)CC(=O)N1C [PP2548] |  | 1050 nM | 7.8 nM |  |  | B (a compound having 3 or more and less than 10 is denoted as B) | A (a compound having 10 or more and less than 20 is denoted as A) |  |  |
| CCCN(C)C(=O)[C@@H]1CC(=O)N(C)[C@@H](CC(C)C)C(=O)N[C@@H]([C@@H](C)CC)C(=O)N2CCC[C@H]2C(=O)N(C)[C@H]2C/C=C\CCN(C2=O)[C@@H](Cc2ccc(C(F)(F)F)cc2)C(=O)N(C)CC(=O)N[C@@H](CCc2cc(F)c(C(F)(F)F)c(F)c2)C(=O)N2C[C@H](OCC)C[C@H]2C(=O)N[C@]2(C[C@@H](OC)C2)C(=O)N(C)[C@@H](C2CCCC2)C(=O)N1C [PP3354] | 1.4 nM | 58.5 nM |  |  |  | A (a compound having 10 or more and less than 20 is denoted as A) | A (a compound having 10 or more and less than 20 is denoted as A) |  |  |
| CCC[C@H]1C(=O)N[C@@H]([C@@H](C)CC)C(=O)N(C)CC(=O)N(C)[C@H]2C/C=C\CCN(C2=O)[C@@H](Cc2ccc(C(F)(F)F)cc2)C(=O)N(C)CC(=O)N[C@@H](CCc2cc(F)c(Cl)c(F)c2)C(=O)N2C[C@H](OCC)C[C@H]2C(=O)NC2(CCC2)C(=O)N(C)[C@@H](C(CC)CC)C(=O)N(C)[C@H](C(=O)N(C)C)CC(=O)N1C [PP1231] |  |  |  | 0.56 nM | 23.1 nM |  |  | A (a compound having 10 or more and less than 20 is denoted as A) | AA (a compound having 20 or more is denoted as AA) |

Continued by falling IC50 ([2]; NCI-H441 cells, 4 days), values first:

| Kd ([1]; Single Cycle Kinetics) | IC50 ([2]; NCI-H441 cells, 4 days) | Kd ([1]; 1:1 binding model) | Kd [1, 7] | IC50 [2, 8] | SMILES | HRAS /KRAS (HRAS wild-type protein; [4]) | NRAS /KRAS [3, 5] | HRAS /KRAS (HRAS wild-type protein; [6]) | NRAS /KRAS [3, 9] |
| --- | --- | --- | --- | --- | --- | --- | --- | --- | --- |
| 1.1 nM | 18.7 nM |  |  |  | CCO[C@@H]1C[C@H]2C(=O)OC3(CCC3)C(=O)N(C)[C@@H](C3CCCC3)C(=O)N(C)[C@H](C(=O)N(C)C)CC(=O)N(C)[C@@H](CC(C)C)C(=O)N[C@@H]([C@@H](C)CC)C(=O)N(C3CC3)CC(=O)N(C)[C@H]3C/C=C\CCN(C3=O)[C@@H](Cc3ccc(C)cc3)C(=O)N(C)CC(=O)N[C@@H](CCc3ccc(C(F)(F)F)c(OC)c3)C(=O)N2C1 [PP3381] | A (a compound having 10 or more and less than 20 is denoted as A) | A (a compound having 10 or more and less than 20 is denoted as A) |  |  |
| 1.5 nM | 16.8 nM |  |  |  | C#CC[C@H]1C(=O)N[C@@H]([C@@H](C)CC)C(=O)N(C2CC2)CC(=O)N(C)[C@H]2C/C=C\CCN(C2=O)[C@@H](Cc2ccc(C(F)(F)F)cc2)C(=O)N(C)CC(=O)N[C@@H](CCc2ccc(C(F)(F)F)c(OC)c2)C(=O)N2C[C@H](OCC)C[C@H]2C(=O)OC2(CCC2)C(=O)N(C)[C@@H](C2CCCC2)C(=O)N(C)[C@H](C(=O)N(C)C)CC(=O)N1C [PP3372] | B (a compound having 3 or more and less than 10 is denoted as B) | A (a compound having 10 or more and less than 20 is denoted as A) |  |  |
| 0.059 nM | 4.6 nM |  |  |  | CCC[C@H]1C(=O)N[C@@H]([C@@H](C)CC)C(=O)N(C)CC(=O)N(C)[C@H]2C/C=C\CCN(C2=O)[C@@H](Cc2ccc(C(F)(F)F)cc2)C(=O)N(C)CC(=O)N[C@@H](CCc2cc(F)c(C(F)(F)F)c(F)c2)C(=O)N2CC3(CC3)C[C@H]2C(=O)NC2(CCC2)C(=O)N(C)[C@@H](C2CCCC2)C(=O)N(C)[C@H](C(=O)N(C)C)CC(=O)N1C [PP3436] | A (a compound having 10 or more and less than 20 is denoted as A) | A (a compound having 10 or more and less than 20 is denoted as A) |  |  |
| 0.086 nM | 3.8 nM |  |  |  | C#CC[C@H]1C(=O)N[C@@H]([C@@H](C)CC)C(=O)N(C2CC2)CC(=O)N(C)[C@H]2C/C=C\CCN(C2=O)[C@@H](Cc2ccc(C(F)(F)F)cc2)C(=O)N(C)CC(=O)N[C@@H](CCc2ccc(C(F)(F)F)c(Cl)c2)C(=O)N2C[C@H](OCC)C[C@H]2C(=O)N(C)C2(CCC2)C(=O)N(C)[C@@H](C2CCCC2)C(=O)N(C)[C@H](C(=O)N(C)C)CC(=O)N1C [PP3246] | A (a compound having 10 or more and less than 20 is denoted as A) | A (a compound having 10 or more and less than 20 is denoted as A) |  |  |
| 0.1 nM | 1.9 nM |  |  |  | C#CC[C@H]1C(=O)N[C@@H]([C@@H](C)CC)C(=O)N(C2CC2)CC(=O)N(C)[C@H]2C/C=C\CCN(C2=O)[C@@H](Cc2ccc(C(F)(F)F)cc2)C(=O)N(C)CC(=O)N[C@@H](CCc2cc(F)c(C(F)(F)F)c(F)c2)C(=O)N2C[C@H](OCC)C[C@H]2C(=O)N(C)C2(CCC2)C(=O)N(C)[C@@H](C2CCCC2)C(=O)N(C)[C@H](C(=O)N(C)C)CC(=O)N1C [PP3244] | A (a compound having 10 or more and less than 20 is denoted as A) | A (a compound having 10 or more and less than 20 is denoted as A) |  |  |
